Results: patent US9932303B2, “N-hydroxymethanesulfonamide nitroxyl donors” (Cardioxyl Pharmaceuticals, Inc., priority 2014, dated 2018)

Legend:
[1] = Nitroxyl production via N2O headspace analysis (GC); conditions: PBS, 37° C.
Source text: Nitrous oxide (N2O) is produced via the dimerization and dehydration of HNO, and is the most common marker for nitroxyl production (Fukuto et al., Chem. Res. Toxicol. 18:790-801 (2005)). […] Using either nitrous oxide gas or Angeli's salt (AS) as a standard, the relative amounts of N2O released from N-hydroxymethanesulfonamide nitroxyl donating compounds was examined via gas chromatography (GC) headspace analysis.
A procedure for determining the relative amounts of N2O released from N-hydroxymethanesulfonamide nitroxyl donating compounds is as follows. GC was performed on an Agilent gas chromatograph equipped with a split injector (10:1 splitting), microelectron capture detector, and a HP-MOLSIV 30 m×0.32 mm×25 μm molecular sieve capillary column. Helium was used as the carrier (4 mL/min) gas and nitrogen was used as the make-up (20 mL/min) gas. […]
All determinations used a batch of nominal 20 mL headspace vials with volumes pre-measured for sample uniformity (actual vial volume varied by ≤2.0% relative standard deviation (n=6)). The average vial volume for the batch was determined from six randomly-selected vials by calculating the weight difference between the capped and sealed empty (i.e., air-filled) vial and the capped and sealed deionized water-filled vial using the known density of deionized water, then averaging. […]

[2] = In vitro stability in rat plasma; format: in vitro ADME; conditions: male, pH 7.4, 37° C., read-out: T1/2 (minutes) Rat
Description: (§1) Certain compounds from Table 1 were tested for their stability in plasma. The assay system comprised (i) PBS, or plasma from rat, dog or human (at least 3 donors, male, pooled) at pH 7.4, and (ii) for tests conducted in plasma, an anticoagulant (sodium heparin or sodium citrate). Each test compound (5 μM) was incubated in PBS or plasma at 37° C. on a THERMOMIXER® with shaking Three samples (n=3) were taken at each of seven sampling time points: 0, 10, 30, 60, 90, 180 and 360 minutes. The samples were immediately combined with 3 volumes (i.e., 3 times the volume of PBS or plasma) of acetonitrile containing 1% formic acid and an internal standard to terminate the reaction. AB SCIEX API 3000 LC-MS/MS analysis of the test compounds was performed without a standard curve. Half-lives (T1/2) of the test compounds were determined from graphs of the percent remaining values using the peak area response ratio.

[3] = Solid-state stability (appearance, HPLC purity) on storage; format: physicochemical; conditions: 40° C., 70% RH
Description: Solid, powdered samples of compound 2 (1-(4-chlorophenyl)-N-hydroxymethanesulfonamide) were sealed in double polyethylene bags and stored at 40° C., 70% relative humidity (RH) for up to 3 months. After 2 weeks, 1 month, 2 months, and 3 months of storage, the samples were analyzed for visual appearance and/or purity, as determined by high performance liquid chromatography (HPLC). The HPLC measurement conditions were as follows: • Column: PrimeSep AB, 150×4.6 mm, 5 μm • Injection Volume: 10 μL • Detection Wavelength: 220 nm • Mobile Phase A: 0.3% Trifluoroacetic acid (TFA) in deionized water (DI-H2O) • Mobile Phase B: 0.2% TFA in acetonitrile • Diluent: Acetonitrile • Gradient:
• Flow Rate: 1.0 mL/min • Column Temperature: 30° C.

[4] = In vitro stability in human plasma; format: in vitro ADME; conditions: male, pH 7.4, 37° C., read-out: T1/2 (minutes) Human
Description: as §1

[5] = In vitro stability in dog plasma; format: in vitro ADME; conditions: male, pH 7.4, 37° C., read-out: T1/2 (minutes) Dog
Description: as §1

O=S(=O)(Cc1ccc(Cl)cc1)NO [Compound 2, 1-(4-Chlorophenyl)-N-hydroxymethanesulfonamide]
Relative N2O Yield (90 minute incubation) [1]: 24%
half-life at 5 μM [2]: 114 min
Appearance ([3]; 0 Weeks): White
HPLC Purity ([3]; 0 Weeks): 98.912%
HPLC peak at RRT 0.88 ([3]; 0 Weeks): 0.368%
HPLC peak at RRT 1.23 ([3]; 0 Weeks): 0.087%
HPLC peak at RRT 1.35 ([3]; 0 Weeks): 0.633%
Appearance ([3]; 1 Month): White
HPLC Purity ([3]; 1 Month): 95.579%
HPLC peak at RRT 0.88 ([3]; 1 Month): 0.966%
HPLC peak at RRT 1.54 ([3]; 1 Month): 1.959%
HPLC peak at RRT 1.76 ([3]; 1 Month): 0.502%
Appearance ([3]; 2 Months): Off white
HPLC Purity ([3]; 2 Months): 82.665%
HPLC peak at RRT 0.88 ([3]; 2 Months): 3.600%
HPLC peak at RRT 1.53 ([3]; 2 Months): 6.432%
HPLC peak at RRT 1.77 ([3]; 2 Months): 3.234%
Appearance ([3]; 2 Weeks): White
Appearance ([3]; 3 Months): Off white
HPLC Purity ([3]; 3 Months): 76.661%
HPLC peak at RRT 0.88 ([3]; 3 Months): 4.108%
HPLC peak at RRT 1.50 ([3]; 3 Months): 10.123%
HPLC peak at RRT 1.77 ([3]; 3 Months): 3.165%
half-life at 5 μM [4]: 102 min
melting point: 144 °C
half-life at 5 μM [5]: 62 min
